The values that follow come from patent publication US20160176867A1, “MODIFIED BET-PROTEIN-INHIBITING DIHYDROQUINOXALINONES AND DIHYDROPYRIDOPYRAZINONES” (BAYER PHARMA AKTIENGESELLSCHAFT, priority 2013, published 2016).

One assay deals with B16F10 cells. The experiment in a line: Cell proliferation assay (alamarBlue), B16F10. It counts as cell-based. Particulars: Mus musculus, B16-F10; B16F10 (melanoma, BRAF wild-type), 96 hours. The gist of the method:
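B16F10 cells in DMEM with 10% FCS were exposed to seven concentrations from 1E-5 to 1E-8 M for 96 hours at 37 °C. Viability was read with alamarBlue (ex 530/em 590 nm), and day-0 signal was subtracted. IC50 was derived relative to buffer-treated cells.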
(In general: Resazurin is reduced to fluorescent resorufin, in cell work by metabolically active cells.)

Assay [1] concerns the target T1, BRD4 bromo domain 1 [BRD4(1)] (Homo sapiens, UniProt O60885).
T1 construct: N-terminally His6-tagged BRD4(1) (amino acids 67-152); made in house; host or cells: E. coli
The experiment in a line: BRD4/acetylated peptide H4 binding assay (TR-FRET), BRD4 bromo domain 1. Particulars: inhibition of BRD4(1)/Ac-H4 peptide interaction. The gist of the method:
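TR-FRET (665/620 nm ratio) measuring displacement of biotinylated tetra-acetylated H4 peptide from His6-BRD4(1) (aa 67-152, E. coli; typically 10 nM) at pH 7.5. Compound (11 concentrations, 0.1 nM–20 μM, duplicates) was preincubated 10 min at 22°C, then 1 h at 22°C and ≥3 h at 4°C; IC50 from 4-parameter fit normalized to DMSO and no-BRD4 controls.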
For orientation: Time-resolved FRET reads energy transfer from a long-lived donor to a nearby acceptor.

The subject of a further assay is MOLM-13 cells. The experiment in a line: Cell proliferation assay (alamarBlue), MOLM-13. It counts as cell-based. Particulars: Homo sapiens; MOLM-13 (acute myeloid leukaemia), 96 hours. The gist of the method:
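Cells in RPMI1640 with 10% FCS, read by alamarBlue fluorescence (ex 530, em 590 nm) after overnight plating and again after 96 h compound exposure at 37° C (1E-5 to 1E-8 M). Baseline-subtracted signal compared with buffer-treated cells to derive IC50.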

In the next assay the test system is MOLP-8 cells. Put plainly: Cell proliferation assay (alamarBlue), MOLP-8. The format is cell-based. Particulars: Homo sapiens; MOLP-8 (multiple myeloma), 120 hours. The method in brief: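 MOLP-8 cells plated at 4000 cells/well in RPMI1640 with 20% FCS, read after overnight culture, then treated with dilutions from 1E-5 to 1E-8 M for 120 hours at 37° C. Viability by alamarBlue fluorescence (ex 530/em 590 nm); initial reads subtracted, compared with buffer-treated cells, and IC50 calculated for 50% proliferation inhibition.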

The subject of the next assay is CHL-1 cells. The experiment in a line: Cell proliferation assay (alamarBlue), CHL-1. It counts as cell-based. To be noted: Homo sapiens; CHL-1 (melanoma, BRAF wild-type), 96 hours. The procedure:
In accordance with the invention, the ability of the substances to inhibit cell proliferation was determined. Cell viability was determined by means of the alamarBlue® reagent (Invitrogen) in a Victor X3 Multilabel Reader (Perkin Elmer). The excitation wavelength was 530 nm and the emission wavelength […].
The CHL-1 cells (ATCC, CRL-9446) were sown at a concentration of 1000 cells/well in 100 μl of growth medium (DMEM with glutamine, 10% FCS) on 96-well microtitre plates.
After overnight incubation at 37° C., the fluorescence values were determined (CI values). Then the plates were treated with various substance dilutions (1E-5 M, 3E-6 M, 1E-6 M, 3E-7 M, 1E-7 M, 3E-8 M, 1E-8 M) and incubated at 37° C. over 96 hours (MOLM-13, B16F10, CHL-1 cells) or 120 hours (MOLP-8 cells). Subsequently, the fluorescence values were determined (CO values). For the data analysis, the CI values were subtracted from the CO values and the results were compared between cells which had been treated with various dilutions of the substance or only with buffer solution. The IC50 values (substance concentration needed for 50% inhibition of cell proliferation) were calculated therefrom.

Consider `C[C@@H]1C(=O)N(C)c2ccc(Nc3cccc(S(=O)(=O)N4CCOCC4)c3)nc2N1C1CCN(C)CC1` [Example 47, (3R)-1,3-dimethyl-4-(1-methylpiperidin-4-yl)-6-{[3-(morpholin-4-ylsulphonyl)phenyl]-amino}-3-4-dihydropyrido-[2,3-b]pyrazin-2(1H)-one], for which the IC50 (as a rule, the concentration needed to halve the response being measured) with B16F10 cells turned out to be 188 nM; in assay [1], 21 nM; with MOLM-13 cells, 51 nM; with MOLP-8 cells it was 25 nM; in the assay on CHL-1 cells, 20 nM.
For `C[C@@H]1C(=O)N(C)c2ccc(Nc3cccc(S(=O)(=O)NC4CCN(C)CC4)c3)nc2N1C1CCCCCC1` [Example 48, 3-{[(3R)-4-cycloheptyl-1,3-dimethyl-2-oxo-1,2,3,4-tetrahydropyrido-[2,3-b]pyrazin-6-yl]amino}-N-(1-methylpiperidin-4-yl)benzenesulphonamide], in that order: 586 nM, 75 nM, 240 nM, 197 nM and 111 nM.
Turning to `C[C@@H]1C(=O)N(C)c2ccc(Nc3cccc(S(=O)(=O)N4CCN(C)CC4)c3)nc2N1C1CCN(C)CC1` [Example 50, (3R)-1,3-dimethyl-6-({3-[(4-methylpiperazin-1-yl)sulphonyl]phenyl}-amino)-4-(1-methyl-piperidin-4-yl)-3,4-dihydropyrido[2,3-b]pyrazin-2(1H)-one], the half-inhibitory concentration (IC50) was found to be 727 nM in the assay with B16F10 cells; 76 nM in assay [1]; 213 nM in the assay on MOLM-13 cells; 140 nM in the assay with MOLP-8 cells; 118 nM in the assay with CHL-1 cells.
On the same counts, the results for `C[C@@H]1C(=O)N(C)c2ccc(Nc3cccc(S(=O)(=O)N[C@H]4CC[C@H](N5CCN(CC6CC6)CC5)CC4)c3)nc2N1C1CCN(C(=O)OC(C)(C)C)CC1` [Example 52, tert-butyl 4-[(3R)-6-{[3-({trans-4-[4-(cyclo-propylmethyl)piperazin-1-yl]cyclohexyl}-sulphamoyl)phenyl]amino}-1,3-dimethyl-2-oxo-2,3-dihydropyrido[2,3-b]pyrazin-4(1H)-yl]piperidine-1-carboxylate] are 569 nM, 80 nM, 180 nM, 133 nM and 147 nM.
Turning to `C[C@@H]1C(=O)N(C)c2ccc(N(C)c3cccc(S(=O)(=O)N(C)C)c3)nc2N1C1CCOCC1` [Example 54, 3-{[(3R)-1,3-dimethyl-2-oxo-4-(tetrahydro-2H-pyran-4-yl)-1,2,3,4-tetrahydropyrido[2,3-b]pyrazin-6-yl](methyl)-amino}-N,N-dimethyl-benzenesulphonamide], the concentration for half-maximal inhibition (IC50) in the assay on B16F10 cells worked out at 164 nM; in assay [1] it was 106 nM; with MOLM-13 cells, 233 nM; in the assay with MOLP-8 cells, 247 nM; in the assay on CHL-1 cells, 156 nM.
For `C[C@@H]1C(=O)N(C)c2ccc(Nc3ccc4c(c3)S(=O)(=O)NC4)nc2N1C1CCOCC1` [Example 56, (3R)-6-[(1,1-dioxido-2,3-dihydro-1,2-benzothiazol-6-yl)amino]-1,3-dimethyl-4-(tetrahydro-2H-pyran-4-yl)-3,4-dihydropyrido[2,3-b]pyrazin-2(1H)-one], in that order: 488 nM, 112 nM, 239 nM, 214 nM and 181 nM.
For the compound `C[C@@H]1C(=O)N(C)c2ccc(Nc3cccc(S(=O)(=O)NC4CCN(C)CC4)c3)nc2N1C1CCN(C(=O)OC(C)(C)C)CC1` [Example 57, tert-butyl 4-[(3R)-1,3-dimethyl-6-({3-[(1-methylpiperidin-4-yl)sulphamoyl]phenyl}-amino)-2-oxo-2,3-dihydro-pyrido[2,3-b]pyrazin-4(1H)-yl]piperidine-1-carboxylate], the IC50 with B16F10 cells is 531 nM; in assay [1] it was 114 nM; in the assay on MOLM-13 cells, 193 nM; in the assay on MOLP-8 cells, 151 nM; with CHL-1 cells it was 175 nM.
